The results in this text go back to article PMC5326799, “Discovery of Compounds that Positively Modulate the High Affinity Choline Transporter” (Frontiers in Molecular Neuroscience, 2017).

Each structure is given as a SMILES string. pEC50: −log10 of the molar value.

The subject of one data set is SH-SY5Y cell line. The data set can be described thus: [3H]Choline uptake in untransformed SH-SY5Y cell line. The note with it: 1 μM HC-3, 10 μM STS. Format: cell-based. An excerpt:
(§1) Supplementary file Image1.JPEG: Supplementary Figure 1 [^3H] […] Click here for additional data file.

Another data set relates to SH-SY5Y cells. The data set can be described thus: Radiometric CHT transport in SH-SY5Y cell backgrounds. Format: cell-based. The note with it: potentiation could not be demonstrated. The protocol: (§2) A preponderance of literature precedent for measuring high affinity choline uptake (HACU) utilizes a radiometric assay to measure [^3H]Choline transport in preparations. […] A number of parameters were assessed in assay development including cell seeding density, time of assay post-seeding, plate coating, buffer composition, read time and choline concentration.

The target of data set [1] is T1, high affinity choline transporter (CHT) (Homo sapiens, UniProt Q9GZV3).
T1 construct: expressed in transfected cells; host or cells: HEK-293, lentiviral transduction, single-cell clone CHT-WT4
T1 sequence (Q9GZV3 1-580): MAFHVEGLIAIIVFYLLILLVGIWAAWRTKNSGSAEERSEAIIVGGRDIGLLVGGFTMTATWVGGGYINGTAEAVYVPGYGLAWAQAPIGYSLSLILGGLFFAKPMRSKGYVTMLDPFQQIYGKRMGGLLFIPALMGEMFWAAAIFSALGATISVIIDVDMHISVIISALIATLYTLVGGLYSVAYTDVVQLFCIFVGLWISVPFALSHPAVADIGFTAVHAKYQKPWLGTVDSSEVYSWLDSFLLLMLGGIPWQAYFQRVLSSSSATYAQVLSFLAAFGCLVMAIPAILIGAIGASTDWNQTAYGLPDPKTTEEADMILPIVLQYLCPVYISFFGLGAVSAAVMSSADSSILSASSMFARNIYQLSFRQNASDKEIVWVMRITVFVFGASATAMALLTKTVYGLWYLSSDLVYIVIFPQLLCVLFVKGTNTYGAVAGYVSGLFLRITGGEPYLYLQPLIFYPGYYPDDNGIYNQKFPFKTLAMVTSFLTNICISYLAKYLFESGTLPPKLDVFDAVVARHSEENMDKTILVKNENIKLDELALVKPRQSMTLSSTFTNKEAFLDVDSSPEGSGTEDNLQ
The data set can be described thus: Radiometric [3H]Choline uptake assay (scintillation proximity) in HEK cells expressing CHT. The class given is cell-based. Particulars: 3H-choline uptake IC50 or EC50(M), PAM compounds; 10-point dose response; HEK293 CHT-WT4; n.d. = not detected. Here is the method:
Uptake of [^3H]Choline (American Radiochemicals; ART 0197; 1,000 Ci/vial; Specific Activity 60–90 Ci/mmol) was measured in HEK cells expressing the high affinity choline transporter (CHT), clone WT4. Cells were plated at 50,000 cells /well in 200 μL culture media on a PDL coated Cytostar-T 96 well plate (Perkin Elmer) 24 h prior to assay. On the day of assay, following two washes and a 30 min pre-incubation at 37°C in 50 μL Na(−) free buffer (0.54 mM KCl, 1.3 mM CaCl2, 0.53 mM MgCl2, 0.4 mM MgSO4, 0.37 mM KH2PO4, 240 mM Sucrose, 4.4 mM Tris-phosphate, 5.5 mM Glycine, 5.6 mM D-Glucose; pH 6.5 with KOH), 25 μL 4X control or test compounds in Na(−) buffer were added to the cells. […] Final DMSO concentration was 0.25%. Following a 30 min incubation at 37°C, 25 μL [^3H]Choline diluted to 320 nM (80 nM final concentration) was added in Na(+) buffer (0.54 mM KCl, 1.3 mM CaCl2, 0.53 mM MgCl2, 0.4 mM MgSO4, 0.37 mM KH2PO4, 138 mM NaCl, 0.28 mM Na2HPO4, 5.5 mM Glycine, 5.6 mM D-Glucose; pH 6.5 with KOH). Plates were sealed with TopSeals (Perkin Elmer) and incubated in darkness for 3 h at room temperature before reading using a Wallac Microbeta, 1 min/well.
as §2
(In a scintillation proximity assay essentially only radioactivity close to the scintillant gives light.)

A further data set deals with T2, CHT (Homo sapiens, UniProt Q9GZV3).
T2 sequence (Q9GZV3 1-580): T1 sequence (Q9GZV3 1-580)
The data set can be described thus: cell-based.

The subject of another data set is SK-N-FI cell line. The data set can be described thus: [3H]Choline uptake in untransformed SK-N-FI cell line. The class given is cell-based. Particulars: 1 μM HC-3, 10 μM STS.
Source text: as §1

The term EC50 denotes the concentration needed to bring the measured effect to its halfway point. Low readings indicate greater potency, high ones weaker potency. By pEC50 is commonly meant −log10 of the EC50, conventionally taken in molar units. A lower pEC50 goes with a high EC50. `CN[C@@H]1C[C@H]2O[C@@](C)([C@@H]1OC)n1c3ccccc3c3c4c(c5c6ccccc6n2c5c31)C(=O)NC4` [STS, staurosporine]: the “Effect on [3H]Choline uptake” value in the data set with SH-SY5Y cell line and in the data set on SK-N-FI cell line was “No effect” in each case. Moreover, the “Potentiation of CHT transport in SH-SY5Y cell backgrounds” value with SH-SY5Y cells is “toxicity”. In addition, the midpoint of the response in data set [1], the EC50, lay at 1.7e-06 M. Further, the pEC50 at CHT is 6.29.
